{
  "source": "paper PMC10746112",
  "about": "“Synthesis and Pro-Apoptotic Effects of Nitrovinylanthracenes and Related Compounds in Chronic Lymphocytic Leukaemia (CLL) and Burkitt’s Lymphoma (BL)” (Molecules, 2023)",
  "key": {"PGA-1 CLL cells": {"test_system": "PGA-1 CLL cells", "experiment": "Inhibitor studies (NAC, Z-VAD-FMK), Annexin V/PI FACS", "assay_type": "cell-based", "settings": "48 h", "method": "(§1) Additional annexin V/PI FACS analysis was carried out in the presence of a reactive oxygen species (ROS) inhibitor (N-acetylcysteine) and a pan-caspase inhibitor (Z-VAD-FMK) in order to study their effects (if any) on the pro-apoptotic effects of 11h (Figure 6). […] Similar results were obtained in the HG-3 cell line at 2.5 µM (90% to 31%) and 5 µM of 11h (84% to 51%). In the presence of the caspase inhibitor Z-VAD-FMK ([…]), the apoptosis induced by compound 11h decreased from 63% to 25% at 2.5 µM and from 79% to 43% at 5 µM in the PGA1 cell line. Similar results were obtained in the HG-3 cell line at 2.5 µM (84% to 29%) and 5 µM (74% to 50%). These findings indicate that both caspases and ROS may be involved in the mechanism of apoptosis for compound 11h.\n(§2) The HG-3 and PGA-1 CLL cells (5 × 10^4 cells/mL) were pre-treated at 37 °C with either 5 mM N-acetylcysteine (NAC) for 1 h or 40 μM caspase inhibitor (Z-VAD-FMK; MBL International, Co., Woburn, MA, USA) for 4 h prior to treatment with (11 h at 5 μM) for 48 h. Annexin V/PI FACS analysis was then carried out as described above in Section 4.5."}, "HG-3 CLL cells": {"test_system": "HG-3 CLL cells", "experiment": "Inhibitor studies (NAC, Z-VAD-FMK), Annexin V/PI FACS", "assay_type": "cell-based", "settings": "48 h", "method": "as §1, §2"}, "[1]": {"experiment": "viability of peripheral blood mononuclear cells", "assay_type": "cell-based, human", "settings": "human, healthy donor PBMCs", "method": "(§3) The nitrostyrene 11h was evaluated for its cytotoxic effect on healthy donor peripheral blood mononuclear cells (PBMCs) to determine the selective toxicity of compounds containing the nitrostyrene pharmacophore on malignant BL cell lines over normal blood cells. Compound 11h was evaluated at 1 μM and 10 μM concentrations over a 24 h treatment time (Supplementary Information, Table S8).\n(§4) Cells were seeded at a density of 2.5 × 10^4 cells/well (MCF-7, MDA-MB-231 cells), 1 × 10^4 cells/well (HL-60 cells), 1–5 × 10^4 cells per well (BL MUTU-I, DG-75 cells) and 2 × 10^5 cells/well [HG-3, PGA-1 (CLL cells)], Ramos, BJAB (BL cells) (200 μL per well), in 96-well plates. Cells were treated with the desired drug concentration for the appropriate time for each cell type, and the samples were incubated as required. alamarBlue (20 μL) was then added to each well and the samples further incubated in the dark at 37 °C for 4 h. Wells containing only reagent and cell culture medium in the absence of cells were used as blank controls. Ethanol was used as a vehicle, and cells were treated with 1% ethanol (v/v) in all experiments. The 96-well plates were analysed on a fluorescence plate reader (SpectraMax Gemini, Molecular Devices) (emission and excitement wavelengths of 590 nm and 544 nm, respectively), and the fluorescence was recorded. The decrease in cell viability was then calculated with reference to the vehicle samples (100% viability). EMEM medium with the addition of alamarBlue was used as a blank. Vehicle-treated cells were considered to be 100% viable, and the viabilities of each compound was calculated accordingly. […] All biochemical assays were performed in triplicate on at least three independent occasions, and the mean values were determined.\n(§5) Peripheral blood was obtained from healthy donors (n = 2) after informed consent was received. The blood was then placed into a 50 mL falcon tube and diluted with an equal volume of phosphate-buffered saline (PBS). PBMCs were isolated using density gradient centrifugation using LymphoPrep as described previously Approval for this study was obtained from the School of Pharmacy and Pharmaceutical Sciences Trinity College Dublin Research Ethics Committee (2020-06-01-MS)."}, "[2]": {"test_system": "peripheral blood mononuclear cells (PBMCs)", "experiment": "viability of peripheral blood mononuclear cells", "assay_type": "cell-based, human", "settings": "24 h, healthy donor PBMCs", "method": "as §3, §4, §5"}, "DG-75 BL cells": {"test_system": "DG-75 BL cells", "experiment": "Annexin V/PI apoptotic assay (FACS)", "assay_type": "cell-based", "settings": "10 µM, 48 h, total (early + late) apoptosis", "method": "(§6) The chemotherapeutic drug taxol was used as a positive control. The pro-apoptotic effects of the selected nitrostyrene compounds 11g, 11h, 11i, 11j, 11k and 11l (10 μM) were determined using FITC (fluorescein isothiocyanate), Annexin V/PI (propidium iodide) staining and FACS (fluorescence-activated cell sorting) analysis to characterise the mode of cellular death induced by the synthesised compounds. Four populations were produced in this assay: Annexin-V- and PI-negative (Q4, healthy cells), Annexin-V-positive and PI-negative (Q3, early apoptosis), Annexin-V- and PI-positive (Q2, late apoptosis) and Annexin-V-negative and PI-positive (Q1, necrosis), which were easily identified and quantified. Apoptosis was assessed as % total apoptosis by a combination of early and late apoptosis (Q3 and Q2, respectively). […] The identification of compounds that can induce apoptosis in cancer cells is required in the development of potential lead structures for anticancer drugs.\n(§7) The BL cells DG-75 and MUTU-I (750,000) were treated at 37 °C with either vehicle (0.1% (v/v) EtOH), […] taxol (10 μM) and incubated for 24 h (MUTU-1) or 48 h (DG-75). The CLL cells PGA1 and HG3 (1 × 10^6 cells/mL) were treated at 37 °C with either vehicle (1% (v/v) DMSO) or the nitrostyrene compounds 19a (10 μM, 5 μM and 1 μM) and 19g, 19i, 19l and 19m (10 μM and 1 μM) for 48 h. The cells were then harvested by centrifugation at 400× g in a temperature-controlled Sorvall centrifuge and rinsed with 0.5 mL of Ca^2+ Annexin-V-binding buffer (0.1 M HEPES, pH 7.4; 0.14 M NaCl; 25 mM CaCl2). The samples were resuspended in 50 µL FITC Annexin V (diluted 1:33 in Ca^2+ Annexin V-binding buffer), incubated on ice for 10 min (protected from light), washed with Annexin-V-binding buffer and re-suspended in 500 µL of propidium iodide (PI) solution (0.5 µg/mL). The samples were analysed within 1 h using a BD Accuri C6 flow cytometer counting 10,000 cells and analysed using the FlowJo software (FlowJo LLC, Ashland, OR, USA) package."}, "MUTU-I BL cells": {"test_system": "MUTU-I BL cells", "experiment": "Annexin V/PI apoptotic assay (FACS)", "assay_type": "cell-based", "settings": "10 µM, 24 h, total (early + late) apoptosis", "method": "as §6, §7"}},
  "data": [
    {"smiles": "C/C(=C\\c1cccc(Cl)c1)[N+](=O)[O-]", "note": "[Compound 11h]", "values": [
      {"measurement": "apoptosis", "setting": "PGA-1 CLL cells; PGA1, 2.5 µM compound, in the presence of NAC", "result": 21, "unit": "%"},
      {"measurement": "apoptosis", "setting": "PGA-1 CLL cells; PGA1, 2.5 µM compound, in the presence of Z-VAD-FMK", "result": 25, "unit": "%"},
      {"measurement": "apoptosis", "setting": "PGA-1 CLL cells; PGA1, 2.5 µM compound, without NAC", "result": 68, "unit": "%"},
      {"measurement": "apoptosis", "setting": "PGA-1 CLL cells; PGA1, 2.5 µM compound, without Z-VAD-FMK", "result": 63, "unit": "%"},
      {"measurement": "apoptosis", "setting": "PGA-1 CLL cells; PGA1, 5 µM compound, in the presence of NAC", "result": 33, "unit": "%"},
      {"measurement": "apoptosis", "setting": "PGA-1 CLL cells; PGA1, 5 µM compound, in the presence of Z-VAD-FMK", "result": 43, "unit": "%"},
      {"measurement": "apoptosis", "setting": "PGA-1 CLL cells; PGA1, 5 µM compound, without NAC", "result": 88, "unit": "%"},
      {"measurement": "apoptosis", "setting": "PGA-1 CLL cells; PGA1, 5 µM compound, without Z-VAD-FMK", "result": 79, "unit": "%"},
      {"measurement": "apoptosis", "setting": "HG-3 CLL cells; HG-3, 2.5 µM compound, in the presence of NAC", "result": 31, "unit": "%"},
      {"measurement": "apoptosis", "setting": "HG-3 CLL cells; HG-3, 2.5 µM compound, in the presence of Z-VAD-FMK", "result": 29, "unit": "%"},
      {"measurement": "apoptosis", "setting": "HG-3 CLL cells; HG-3, 2.5 µM compound, without NAC", "result": 90, "unit": "%"},
      {"measurement": "apoptosis", "setting": "HG-3 CLL cells; HG-3, 2.5 µM compound, without Z-VAD-FMK", "result": 84, "unit": "%"},
      {"measurement": "apoptosis", "setting": "HG-3 CLL cells; HG-3, 5 µM compound, in the presence of NAC", "result": 51, "unit": "%"},
      {"measurement": "apoptosis", "setting": "HG-3 CLL cells; HG-3, 5 µM compound, in the presence of Z-VAD-FMK", "result": 50, "unit": "%"},
      {"measurement": "apoptosis", "setting": "HG-3 CLL cells; HG-3, 5 µM compound, without NAC", "result": 84, "unit": "%"},
      {"measurement": "apoptosis", "setting": "HG-3 CLL cells; HG-3, 5 µM compound, without Z-VAD-FMK", "result": 74, "unit": "%"},
      {"measurement": "viability at 24 h, 1 µM", "setting": "[1]; 1 µM", "result": 74, "unit": "%"},
      {"measurement": "viability at 24 h, 10 µM", "setting": "[1]; 10 µM", "result": 34.1, "unit": "%"},
      {"measurement": "PBMCs % viability", "setting": "[2]; 1 µM", "result": "73.66±3.725", "unit": "%"},
      {"measurement": "PBMCs % viability", "setting": "[2]; 10 µM", "result": "34.08±9.587", "unit": "%"},
      {"measurement": "DG-75 Apoptosis (%)", "setting": "DG-75 BL cells", "result": 92.0, "unit": "%"},
      {"measurement": "MUTU-I Apoptosis (%)", "setting": "MUTU-I BL cells", "result": 82.6, "unit": "%"}
    ]}
  ]
}
